Reference: patent US8900444B2, “Switchable hydrophilicity solvents and methods of use thereof” (Queen's University at Kingston, priority 2009, dated 2014)
“Also recorded” adds a separate entry of the source. Where two headings read alike, the source gives them in different places.

Key:
Format in all cases: physicochemical
[1] = Miscibility of amines with water in the absence of CO2 (Example 5A)
Protocol: 1 mL of an appropriate amine was combined with 1 mL of H2O in a 4 mL vial, with the 1 and 2 mL volume lines marked. The vial was manually shaken and left to settle at room temperature. After the mixture settled, the number of phases was observed visually. This procedure was performed for all of the screened amines.

[2] = Miscibility of amines with water in the presence of CO2 (Example 5B); conditions: CO2 bubbled through amine/water mixture for at least one hour
Protocol: All of the amines that formed a biphasic mixture in Example 5A were subjected to the following test. Carbon dioxide was bubbled through the amine/water biphasic mixture, via a syringe needle, for at least one hour. Care was taken to regulate the rate of the CO2 bubbling, so as not to cause evaporation of the amine. The liquid-liquid interface was observed over the course of CO2 bubbling, and a photo was taken after 60 minutes.

[3] = Water miscibility of amidines in neutral form and after CO2; conditions: for miscibility with water, neutral (unprotonated) amidine form: no CO2
Excerpt: This represents relatively hydrophilic character. The amidines A-D are unsatisfactory for use as a switchable hydrophilicity solvent because they are insufficiently hydrophobic in their amidine form. […] Since such amidines are not separable from water after switching from their hydrophilic to hydrophobic forms, they are unsuitable for use in the present invention.
Exposure of a 1:1 by volume mixture of two immiscible liquids, hydrophobic PA and water, to gaseous CO2, at 1 atmosphere, caused a conversion to a hydrophilic liquid comprising an aqueous solution of N,N,N′-tripropylbutyramidinium bicarbonate (PAB) (see FIG. 1 for the chemical scheme in which R^1-4 are propyl). NMR data for the PA/water system is presented in FIGS. 4 and 5 and IR data in FIG. 6. FIGS. 4A and 5A show ^1H and ^13C NMR data for PA. After switching, the detection of the N,N,N′-tripropylbutyramidinium bicarbonate salt was confirmed by ^1H and ^13C NMR as shown in FIGS. 4B and 5B.
Similarly, exposure of a 1:1 by volume mixture of two immiscible liquids, hydrophobic BA and water, to gaseous CO2, at 1 atmosphere, caused a conversion to a hydrophilic liquid comprising an aqueous solution of N,N,N′-tributylpentanamidinium bicarbonate (BAB) (see FIG. 1 for the chemical scheme in which R^1-4 are butyl). NMR data for the […] is presented in FIGS. 7 and 8 and IR data in FIG. 9. […] show ^1H and ^13C NMR data for BA. After switching, the detection of the N,N,N′-tributylpentanamidinium bicarbonate salt was confirmed by ^1H and ^13C NMR as shown in FIGS. 6B and 7B. The hydrophilic aqueous solution of BAB was converted back into hydrophobic BA and water by heating at 80° C.

[4] = Conversion of amine switchable hydrophilicity solvents back to hydrophobic form by heating (Example 5C); conditions: 80 °C, approximately 60 minutes
Protocol: All of the amines identified as switchable hydrophilicity solvents in Example 5B (except N,N-dimethylbutylamine) were subjected to the following test. The vial containing the single-phase amine/water/CO2 mixture prepared in example 5B was heated in an oil bath at 80° C. for approximately 60 minutes. The mixture was magnetically stirred, and phase separation was observed throughout the course of heating. In the case of the N1,N1,N4,N4-tetraethylbutane-1,4-diamine/water/CO2 mixture, 5 hours of heating was required to switch it back to its hydrophobic form.

[5] = Visual and NMR study of amine switchable hydrophilicity solvents (Example 6); conditions: for loss of volume after CO2 bubbling / time of CO2 bubbling to form one homogeneous solution / total volume after CO2 bubbling / number of layers formed without CO2: 1 mL amine + 1 mL D2O; for number of layers formed without CO2: room temperature
Protocol: The following amines were evaluated in this series of experiments: N-ethylpiperidine, N,N-dimethylcyclohexylamine, and N,N-dimethylhexylamine. The sequence of experiments is described for one amine but was performed for all three. The visual observations are described in Table 3. 1,4-Dioxane was used as an internal standard for NMR spectroscopy.
Amine (1 mL) was combined with D2O (1 mL) in a 10 mL graduated cylinder, which was then capped with a rubber septum. The cylinder was manually shaken and left to settle at room temperature, after which the mixture appeared as two transparent liquid phases. For each amine, this procedure was simultaneously conducted in 3 identical cylinders. From the aqueous (bottom) layer of one of the three cylinders, three 250 μL samples were withdrawn, combined with equal volumes of D2O and dioxane internal standard, and analyzed by ^1H NMR spectroscopy. The spectra were consistent with the amine in the aqueous phase being in its neutral form. The graduated cylinder from which the samples were taken was discarded.
For each of two remaining graduated cylinders, carbon dioxide was bubbled through the amine/water biphasic mixture, via a syringe needle, for at least one hour. Care was taken to regulate the rate of the CO2 bubbling, so as not to cause significant evaporation of the amine. The mixture changed from a biphasic liquid mixture to a single homogeneous liquid phase. From one of the two graduated cylinders, a 300 μL sample of the homogenous liquid phase was withdrawn and mixed with an equal volume of D2O and a known quantity of dioxane internal standard. […] The graduated cylinder from which the sample was taken was discarded.
The remaining graduated cylinder, containing the single-phase amine/water/CO2 mixture prepared above, was heated in an oil bath at 80 deg. C for 1 hour. Phase separation was observed. Three 250 μL samples of the aqueous (bottom) layer were withdrawn, combined with equal volumes of D2O and a known quantity of dioxane internal standard, and analyzed by NMR spectroscopy.

[6] = Converting ammonium bicarbonate salt to amine by bubbling air at room temperature (Example 5D)
Protocol: A homogeneous aqueous solution of dimethylcyclohexylammonium bicarbonate was prepared by mixing N,N-dimethylcyclohexylamine (1 mL), and H2O (1 mL) and bubbling with CO2 for 90 minutes. The 2.0 mL solution was placed in a 10 mL graduated cylinder with a magnetic stir bar and that was then stoppered with a rubber septum. Air was bubbled through the solution for a total of 28 hours, with constant stirring. […] Total volume loss after 28 hours was 0.1 mL.

[7] = 1 mL amine + 1 mL H2O, room temperature, visual
[8] = 2.0 mL aqueous solution, stirring

## CN(C)Cc1cc(CN(C)C)cc(CN(C)C)c1 [1,1′,1″-(benzene-1,3,5-triyl)tris(N,N-dimethylmethanamine)]
[1]; [7]
  miscibility with water under air (absence of CO2): biphasic
[2]
  miscibility with water after CO2 treatment: single-phase

## CN(C)CC1CC(CN(C)C)CC(CN(C)C)C1 (stereo not shown) [1,1′,1″-(cyclohexane-1,3,5-triyl)tris(N,N-dimethylmethanamine]
[1]; [7]
  miscibility with water under air (absence of CO2): biphasic
[2]
  miscibility with water after CO2 treatment: single-phase

## C1CCC2=NCCCN2CC1 [DBU, 1,8-diazabicyclo-[5.4.0]-undec-7-ene, reference compound]
[3]
  miscibility with water, neutral (unprotonated) amidine form: water-miscible

## CN(C)CCCCN(C)C [Me2NCH2CH2CH2CH2NMe2, reference compound]
[1]; [7]
  miscibility with water under air (absence of CO2): miscible

## CCCCCCN=C(C)N(C)C [Me2N—C(═N-hexyl)Me, reference compound]
[3]
  miscibility with water, neutral (unprotonated) amidine form: water-miscible

## CN(C)CCN(C)C [N,N,N′,N′,-tetramethylethylenediamine, reference compound]
[1]
  miscibility with water under air (absence of CO2): single-phase

## CCCN(CCC)CCCCN(CCC)CCC [N,N,N′,N′-tetrapropylbutane-1,4-diamine, reference compound]
[1]; [7]
  miscibility with water under air (absence of CO2): biphasic
[2]
  miscibility with water after CO2 treatment: biphasic
[2]; listed as Pr2NCH2CH2CH2CH2NPr2
  miscibility with water after CO2 treatment: immiscible

## CCN(CC)C1CCCCC1 [N,N-diethyl-N-cyclohexylamine]
[1]; [7]
  miscibility with water under air (absence of CO2): immiscible with water
[2]
  miscibility with water after CO2 treatment: became water-miscible

## CCN(C)CC [N,N-diethyl-N-methylamine]
[1]; [7]
  miscibility with water under air (absence of CO2): immiscible with water
[2]
  miscibility with water after CO2 treatment: became water-miscible

## CCCCN(CC)CC [N,N-diethylbutylamine]
[1]; [7]
  miscibility with water under air (absence of CO2): biphasic
[1]; 1 mL amine + 1 mL H2O, room temperature, visual, listed as diethylbutylamine
  miscibility with water under air (absence of CO2): immiscible with water
[4]
  loss of amine during heating (excessive volatility): loss of amine
[2]
  miscibility with water after CO2 treatment: single-phase
[2]; listed as diethylbutylamine
  miscibility with water after CO2 treatment: became water-miscible

## CCN(C(C)C)C(C)C [N,N-diisopropylethylamine, reference compound]
[1]; [7]
  miscibility with water under air (absence of CO2): biphasic
[2]
  miscibility with water after CO2 treatment: biphasic

## CN(C)c1ccccc1 [N,N-dimethylaniline, reference compound]
[1]; [7]
  miscibility with water under air (absence of CO2): biphasic
[2]
  miscibility with water after CO2 treatment: biphasic

## CCCCN(C)C [N,N-dimethylbutylamine]
[1]; [7]
  miscibility with water under air (absence of CO2): biphasic
[2]
  miscibility with water after CO2 treatment: single-phase

## CCCCCCCCCCCCN(C)C [N,N-dimethyldodecylamine, reference compound]
[1]; [7]
  miscibility with water under air (absence of CO2): biphasic
[2]
  miscibility with water after CO2 treatment: biphasic

## CCCCCCN(C)C [N,N-dimethylhexylamine]
[1]; [7]
  miscibility with water under air (absence of CO2): biphasic
[1]; 1 mL amine + 1 mL H2O, room temperature, visual, listed as dimethylhexylamine
  miscibility with water under air (absence of CO2): immiscible with water
[2]
  miscibility with water after CO2 treatment: single-phase
[2]; listed as dimethylhexylamine
  miscibility with water after CO2 treatment: became water-miscible
[5]
  loss of volume after CO2 bubbling: (loss of 0.1 mL)
  time of CO2 bubbling to form one homogeneous solution: took 75 min to form one
  total volume after CO2 bubbling: total volume is 1.9 mL
  number of layers formed without CO2: formed 2 clear,
[5]; oil bath 80 deg. C
  time of heating to separate into 2 layers: after 30 min solution has
  volume of bottom (aqueous) layer after heating: 1 mL
  volume of top layer after heating: 0.9 mL

## CCCN(CC)CCCCN(CC)CCC [N,N′-dipropyl-N,N′-diethylbutane-1,4-diamine]
[1]; [7]
  miscibility with water under air (absence of CO2): biphasic
[1]; 1 mL amine + 1 mL H2O, room temperature, visual, listed as EtPrNCH2CH2CH2CH2NEtPr
  miscibility with water under air (absence of CO2): immiscible
[2]
  miscibility with water after CO2 treatment: single-phase
[2]; listed as EtPrNCH2CH2CH2CH2NEtPr
  miscibility with water after CO2 treatment: miscible

## CCCCN1CCCC1 [N-butylpyrrolidine]
[1]; [7]
  miscibility with water under air (absence of CO2): immiscible with water; also recorded: biphasic
[2]
  miscibility with water after CO2 treatment: became water-miscible; also recorded: single-phase

## CCN1CCOCC1 [N-ethylmorpholine, reference compound]
[1]; [7]
  miscibility with water under air (absence of CO2): single-phase

## CCN1CCCCC1 [N-ethylpiperidine]
[1]; [7]
  miscibility with water under air (absence of CO2): immiscible with water; also recorded: biphasic
[2]
  miscibility with water after CO2 treatment: became water-miscible; also recorded: single-phase
[5]
  loss of volume after CO2 bubbling: (loss of 0.1 mL)
  time of CO2 bubbling to form one homogeneous solution: took 60 min to form one
  total volume after CO2 bubbling: total volume is 1.9 mL
  number of layers formed without CO2: formed 2 layers;
[5]; 80 deg. C, 1 hour, NMR spectroscopy, dioxane internal standard
  amine remaining in the aqueous phase after heating: showed that approximately 49%
[5]; oil bath 80 deg. C
  time of heating to separate into 2 layers: after 30 min, separated into 2
  volume of top layer after heating: 0.7 mL. NMR spectroscopy

## CN1CCCCC1 [N-methylpiperidine, reference compound]
[1]; [7]
  miscibility with water under air (absence of CO2): single-phase

## CCCN=C(CCC)N(CCC)CCC [PA, N,N,N′-tripropylbutyramidine]
[3]; CO2 and water
  miscibility with water after CO2 trigger (amidinium bicarbonate form): became miscible
[3]
  miscibility with water, neutral (unprotonated) amidine form: immiscible with water

## CN(C)C1CCCCC1.O=C(O)O [dimethylcyclohexylammonium bicarbonate]
[6]
  total volume loss after 28 hours of air bubbling: 0.1 mL
  volume of bottom layer after 28 hours of air bubbling: 1.6 mL
  volume of top layer after 28 hours of air bubbling: 0.3 mL
[6]; [8]
  observation after 8 hours of air bubbling: no observed phase separation or volume loss
  observation after 28 hours of air bubbling: a two-phase liquid mixture was observed

## CCCCCCCCN(CCCCCCCC)CCCCCCCC [trioctylamine, reference compound]
[1]; [7]
  miscibility with water under air (absence of CO2): biphasic
[2]
  miscibility with water after CO2 treatment: biphasic

## CCCN(CCC)CCC [tripropylamine, reference compound]
[1]; [7]
  miscibility with water under air (absence of CO2): biphasic
[2]
  miscibility with water after CO2 treatment: biphasic
